Active and inactive are the calls of the source. No rule for the calls is given here.
Tested on: rodent lifetime carcinogenesis bioassay, tumor incidence TD50
Assay: chronic cancer bioassays in animals – CPDB, compiled studies (AID 1745844)

Compound: C=CCOCC1CO1 (centres undefined)
- TD50 (mouse, strain B6C3F1, females, inhaled, site: Harderian gland, lesion: adenoma, dosed 102 weeks, study length 105 weeks): 121 mg/kg/day
- TD50 (mouse, strain B6C3F1, females, inhaled, site: lung, lesion: alveolar/bronchiolar adenoma + alveolar/bronchiolar carcinoma, dosed 102 weeks, study length 105 weeks): 123 mg/kg/day
- TD50 (mouse, strain B6C3F1, females, inhaled, site: nasal cavity, respiratory epithelium, lesion: adenoma, dosed 102 weeks, study length 105 weeks): 614 mg/kg/day
- TD50 (mouse, strain B6C3F1, males, inhaled, site: lung, lesion: alveolar/bronchiolar adenoma + alveolar/bronchiolar carcinoma, dosed 102 weeks, study length 105 weeks): 727 mg/kg/day
- TD50 (mouse, strain B6C3F1, males, inhaled, site: nasal cavity, respiratory epithelium, lesion: adenoma, dosed 102 weeks, study length 105 weeks): 182 mg/kg/day
- TD50 (rat, strain Osborne-Mendel, females, inhaled, site: any site (literature study), lesion: several types, types named in the paper, dosed 103 weeks, study length 106 weeks): 25.9 mg/kg/day (inactive)
- TD50 (rat, strain Osborne-Mendel, males, inhaled, site: any site (literature study), lesion: several types, types named in the paper, dosed 103 weeks, study length 106 weeks): 1.01 mg/kg/day
- TD50 (rat, strain Osborne-Mendel, males, inhaled, site: nasal cavity, olfactory epithelium + nasal cavity, respiratory epithelium, lesion: adenocarcinoma + papillary adenoma + squamous-cell carcinoma, dosed 103 weeks, study length 106 weeks): 14.9 mg/kg/day

Compound: CCn1cc(C(=O)O)c(=O)c2ccc(C)nc21
- TD50 (mouse, strain B6C3F1, females, in feed, site: adrenal medulla, lesion: pheochromocytoma, dosed 103 weeks, study length 104 weeks): 3630 mg/kg/day (inactive)
- TD50 (mouse, strain B6C3F1, females, in feed, site: any site (literature study), lesion: several types, types named in the paper, dosed 103 weeks, study length 104 weeks): 1690 mg/kg/day
- TD50 (mouse, strain B6C3F1, females, in feed, site: liver, lesion: hepatocellular adenoma + hepatocellular carcinoma + neoplastic nodule, dosed 103 weeks, study length 104 weeks): 3160 mg/kg/day
- TD50 (mouse, strain B6C3F1, females, in feed, site: lung, lesion: alveolar/bronchiolar adenoma + alveolar/bronchiolar carcinoma, dosed 103 weeks, study length 104 weeks): 4900 mg/kg/day
- TD50 (mouse, strain B6C3F1, males, in feed, site: any site (literature study), lesion: several types, types named in the paper, dosed 103 weeks, study length 104 weeks): 1330 mg/kg/day
- TD50 (mouse, strain B6C3F1, males, in feed, site: lung, lesion: alveolar/bronchiolar adenoma + alveolar/bronchiolar carcinoma, dosed 103 weeks, study length 104 weeks): 4600 mg/kg/day
- TD50 (mouse, strain B6C3F1, males, in feed, site: subcutaneous tissue, lesion: fibrosarcoma + fibroma, dosed 103 weeks, study length 104 weeks): 1210 mg/kg/day
- carcinogen call (mouse, strain CDF1, females, in feed, site: any site (literature study), lesion: one or several types, types not named, dosed 76 weeks, study length 85 weeks): negative (inactive)
- TD50 (mouse, strain CDF1, females, in feed, site: liver, lesion: hepatocellular adenoma, dosed 76 weeks, study length 85 weeks): 6450 mg/kg/day (inactive)
- TD50 (mouse, strain CDF1, females, in feed, site: lung, lesion: adenocarcinoma, dosed 76 weeks, study length 85 weeks): 1770 mg/kg/day (inactive)
- carcinogen call (mouse, strain CDF1, females, in feed, site: lung, lesion: several types, types named in the paper, dosed 76 weeks, study length 85 weeks): negative (inactive)
- carcinogen call (mouse, strain CDF1, males, in feed, site: any site (literature study), lesion: one or several types, types not named, dosed 76 weeks, study length 85 weeks): negative (inactive)
- carcinogen call (mouse, strain CDF1, males, in feed, site: liver, lesion: hepatocellular adenoma, dosed 76 weeks, study length 85 weeks): negative (inactive)
- TD50 (mouse, strain CDF1, males, in feed, site: liver, lesion: hepatocellular carcinoma, dosed 76 weeks, study length 85 weeks): 1940 mg/kg/day (inactive)
- TD50 (mouse, strain CDF1, males, in feed, site: liver, lesion: several types, types named in the paper, dosed 76 weeks, study length 85 weeks): 3100 mg/kg/day (inactive)
- TD50 (mouse, strain CDF1, males, in feed, site: lung, lesion: adenocarcinoma, dosed 76 weeks, study length 85 weeks): 3980 mg/kg/day (inactive)
- carcinogen call (mouse, strain CDF1, males, in feed, site: lung, lesion: several types, types named in the paper, dosed 76 weeks, study length 85 weeks): negative (inactive)
- TD50 (rat, strain Fischer 344, females, in feed, site: clitoral gland, lesion: adenoma, NOS + carcinoma, NOS + papillary carcinoma + papilloma, NOS, dosed 103 weeks, study length 104 weeks): 372 mg/kg/day
- TD50 (rat, strain Fischer 344, males, in feed, site: any site (literature study), lesion: several types, types named in the paper, dosed 103 weeks, study length 104 weeks): 7600 mg/kg/day
- TD50 (rat, strain Fischer 344, males, in feed, site: preputial gland, lesion: adenoma, NOS + carcinoma, NOS + papilloma, NOS, dosed 103 weeks, study length 104 weeks): 138 mg/kg/day
- TD50 (rat, strain Fischer 344, males, in feed, site: preputial gland, lesion: adenoma, NOS + papilloma, NOS, dosed 103 weeks, study length 104 weeks): 358 mg/kg/day
- TD50 (rat, strain Fischer 344, males, in feed, site: preputial gland, lesion: adenoma, NOS, dosed 103 weeks, study length 104 weeks): 301 mg/kg/day
- TD50 (rat, strain Fischer 344, males, in feed, site: preputial gland, lesion: carcinoma, NOS, dosed 103 weeks, study length 104 weeks): 211 mg/kg/day

Compound: CCCCCCCCS(=O)C(C)Cc1ccc2c(c1)OCO2 (centres undefined)
- TD50 (mouse, strain B6AKF1, males, oral dosing, site: liver, lesion: hepatoma, dosed 76 weeks, study length 76 weeks): 88.2 mg/kg/day
- carcinogen call (mouse, strain B6C3F1, females, in feed, site: any site (literature study), lesion: several types, types named in the paper, dosed 104 weeks, study length 104 weeks): negative (inactive)
- TD50 (mouse, strain B6C3F1, females, in feed, site: liver, lesion: hepatocellular adenoma + hepatocellular carcinoma + neoplastic nodule, dosed 104 weeks, study length 104 weeks): 725 mg/kg/day
- TD50 (mouse, strain B6C3F1, females, oral dosing, site: any site (literature study), lesion: several types, types named in the paper, dosed 76 weeks, study length 76 weeks): 100 mg/kg/day
- TD50 (mouse, strain B6C3F1, males, in feed, site: any site (literature study), lesion: several types, types named in the paper, dosed 104 weeks, study length 104 weeks): 423 mg/kg/day
- TD50 (mouse, strain B6C3F1, males, in feed, site: liver, lesion: hepatocellular adenoma + hepatocellular carcinoma + neoplastic nodule, dosed 104 weeks, study length 104 weeks): 62.2 mg/kg/day
- TD50 (mouse, strain B6C3F1, males, in feed, site: liver, lesion: hepatocellular carcinoma, dosed 104 weeks, study length 104 weeks): 62.2 mg/kg/day
- TD50 (mouse, strain B6C3F1, males, oral dosing, site: all sites, lesion: reticulum-cell sarcoma, dosed 76 weeks, study length 76 weeks): 9.1 mg/kg/day
- TD50 (mouse, strain B6C3F1, males, oral dosing, site: any site (literature study), lesion: several types, types named in the paper, dosed 76 weeks, study length 76 weeks): 7.72 mg/kg/day
- TD50 (mouse, strain B6C3F1, males, oral dosing, site: liver, lesion: hepatoma, dosed 76 weeks, study length 76 weeks): 45.4 mg/kg/day
- TD50 (rat, strain Fischer 344, females, in feed, site: any site (literature study), lesion: several types, types named in the paper, dosed 105 weeks, study length 105 weeks): 2300 mg/kg/day (inactive)
- carcinogen call (rat, strain Fischer 344, males, in feed, site: any site (literature study), lesion: several types, types named in the paper, dosed 105 weeks, study length 105 weeks): negative (inactive)
- TD50 (rat, strain Fischer 344, males, in feed, site: liver, lesion: hepatocellular adenoma + hepatocellular carcinoma + neoplastic nodule, dosed 105 weeks, study length 105 weeks): 2650 mg/kg/day

Compound: ClC(Cl)C(Cl)(Cl)Cl
- TD50 (mouse, strain B6C3F1, females, by gavage, site: any site (literature study), lesion: several types, types named in the paper, dosed 103 weeks, study length 104 weeks): 39.5 mg/kg/day
- TD50 (mouse, strain B6C3F1, females, by gavage, site: liver, lesion: hepatocellular adenoma + hepatocellular carcinoma + neoplastic nodule, dosed 103 weeks, study length 104 weeks): 39.8 mg/kg/day
- TD50 (mouse, strain B6C3F1, females, by gavage, site: liver, lesion: hepatocellular adenoma + hepatocellular carcinoma, dosed 103 weeks, study length 104 weeks): 39.8 mg/kg/day
- TD50 (mouse, strain B6C3F1, females, by gavage, site: liver, lesion: hepatocellular adenoma, dosed 103 weeks, study length 104 weeks): 153 mg/kg/day
- TD50 (mouse, strain B6C3F1, females, by gavage, site: liver, lesion: hepatocellular carcinoma, dosed 103 weeks, study length 104 weeks): 66.6 mg/kg/day
- TD50 (mouse, strain B6C3F1, females, by gavage, site: lung, lesion: alveolar/bronchiolar adenoma + alveolar/bronchiolar carcinoma, dosed 103 weeks, study length 104 weeks): 1030 mg/kg/day
- TD50 (mouse, strain B6C3F1, males, by gavage, site: any site (literature study), lesion: several types, types named in the paper, dosed 103 weeks, study length 104 weeks): 85.6 mg/kg/day
- TD50 (mouse, strain B6C3F1, males, by gavage, site: liver, lesion: hepatocellular adenoma + hepatocellular carcinoma + neoplastic nodule, dosed 103 weeks, study length 104 weeks): 107 mg/kg/day
- TD50 (mouse, strain B6C3F1, males, by gavage, site: liver, lesion: hepatocellular adenoma + hepatocellular carcinoma, dosed 103 weeks, study length 104 weeks): 107 mg/kg/day
- TD50 (mouse, strain B6C3F1, males, by gavage, site: liver, lesion: hepatocellular carcinoma, dosed 103 weeks, study length 104 weeks): 102 mg/kg/day
- TD50 (rat, strain Fischer 344, females, by gavage, site: any site (literature study), lesion: several types, types named in the paper, dosed 103 weeks, study length 104 weeks): 1660 mg/kg/day (inactive)
- TD50 (rat, strain Fischer 344, males, by gavage, site: kidney, lesion: tubular-cell adenoma + tubular-cell adenocarcinoma, dosed 103 weeks, study length 104 weeks): 662 mg/kg/day
- TD50 (rat, strain Fischer 344, males, by gavage, site: kidney, lesion: tubular-cell adenoma, dosed 103 weeks, study length 104 weeks): 635 mg/kg/day

Compound: Nc1nc(-c2ccc([N+](=O)[O-])cc2)cs1
- TD50 (mouse, strain Swiss, females, in feed, site: all sites, lesion: lymphocytic leukemia, dosed 46 weeks, study length 66 weeks): 9.95 mg/kg/day
- TD50 (mouse, strain Swiss, females, in feed, site: any site (literature study), lesion: several types, types named in the paper, dosed 46 weeks, study length 66 weeks): 9.95 mg/kg/day

— PubChem BioAssay AID1745844 (Carcinogenic Potency Database (CPDB), 2022)
